Data reported in article PMC3173295, “Biochemical characterization of trans-sialidase TS1 variants from Trypanosoma congolense” (BMC Biochemistry, 2011).

Key:
Assay type in all cases: biochemical, Trypanosoma congolense
[1] = tested on: T1, T. congolense TS1 e-1; assay: HPAEC-PAD quantification of […]'Sia-Gal-MU, Michaelis-Menten fit; conditions: acceptor substrate; donor 50 nmol 3'SL in 50 μL (Figure 7 legend; text b29 says fetuin, 600 μM bound Sia); 37°C, 30 min; read-out: Acceptor substrates / Gal-MU / KM
T1 construct: residues 17-732 without signal peptide and GPI anchor region; C-terminal 3C site, SNAP and Strep tags; secreted from CHO Lec1 cells; 120 kDa with tags

[2] = tested on: T2, T. congolense TS1b; assay: as above; conditions: acceptor substrate; donor 50 nmol 3'SL in 50 μL (Figure 7 legend; text b29 says fetuin, 600 μM bound Sia); 37°C, 30 min; read-out: Acceptor substrates / Gal-MU / KM
T2 construct: residues 17-732 without signal peptide and GPI anchor region; C-terminal 3C site, SNAP and Strep tags; secreted from CHO Lec1 cells; 120 kDa with tags

[3] = tested on: T2, T. congolense TS1b; assay: HPAEC-PAD quantification of […]'-sialyllactose, Michaelis-Menten fit; conditions: acceptor substrate; donor fetuin (600 μM bound Sia); pH 7.4-7.5, 37°C, 30 min; read-out: Acceptor substrates / Lactose / KM
[4] = tested on: T1, T. congolense TS1 e-1; assay: as above; conditions: acceptor substrate; donor fetuin (600 μM bound Sia); pH 7.4-7.5, 37°C, 30 min; read-out: Acceptor substrates / Lactose / KM

`Cc1cc(=O)oc2cc(O[C@@H]3O[C@H](CO)[C@H](O)[C@H](O)[C@H]3O)ccc12` [Gal-MU, 4-methylumbelliferyl ß-D-galactoside] was tested, and the Km [1] was 74 ± 17 µM and the Km [2] was 57 ± 14 µM.

`OC[C@H]1O[C@@H](O[C@H]2[C@H](O)[C@@H](O)C(O)O[C@@H]2CO)[C@H](O)[C@@H](O)[C@H]1O` (stereo partly shown) [lactose] gave a Km [3] of 1680 ± 101 µM and a Km [4] of 727 ± 48 µM.
